From PMC5218480 (PLoS ONE, 2017)

Tested on: MV-4-11 cells
Test: Gene expression microarray analysis (Affymetrix PrimeView) and GSEA
Assay type: cell-based, human
Set-up: RFU PODN (11730768_x_at) / Fold change /veh PODN (11730768_x_at) / RFU LINC00158 (11744669_a_at) / Fold change /veh LINC00158 (11744669_a_at) / RFU DUSP10 (11751237_a_at) / Fold change /veh DUSP10 (11751237_a_at) / RFU ID3 (11757404_x_at) / Fold change /veh ID3 (11757404_x_at) / RFU PLEKHG5 (11737974_s_at) / Fold change /veh PLEKHG5 (11737974_s_at) / RFU LRRC4B (11730491_at) / Fold change /veh LRRC4B (11730491_at) / RFU GIMAP4 (11747438_a_at) / Fold change /veh GIMAP4 (11747438_a_at) / RFU KRT8 (11758183_x_at) / Fold change /veh KRT8 (11758183_x_at) / RFU CNN1 (11734310_a_at) / Fold change /veh CNN1 (11734310_a_at) / RFU VPS37D (11726825_at) / Fold change /veh VPS37D (11726825_at) / RFU C10orf10 (11716522_x_at) / Fold change /veh C10orf10 (11716522_x_at) / RFU KIR2DL2 /// KIR2DL4 /// KIR2DL5A /// KIR2DL5B /// KIR2DS1 /// KIR2DS2 /// KIR2DS3 /// KIR2DS4 /// KIR3DL3 /// KIR3DL3 /// KIR3DS1 (11738374_at) / Fold change /veh KIR2DL2 /// KIR2DL4 /// KIR2DL5A /// KIR2DL5B /// KIR2DS1 /// KIR2DS2 /// KIR2DS3 /// KIR2DS4 /// KIR3DL3 /// KIR3DL3 /// KIR3DS1 (11738374_at) / RFU C1QL1 (11718748_at) / Fold change /veh C1QL1 (11718748_at) / RFU TMPRSS4 (11747572_a_at) / Fold change /veh TMPRSS4 (11747572_a_at) / RFU HAMP (11756126_x_at) / Fold change /veh HAMP (11756126_x_at) / RFU RNFT2 (11725882_a_at) / Fold change /veh RNFT2 (11725882_a_at) / RFU NR4A2 (11747474_a_at) / Fold change /veh NR4A2 (11747474_a_at) / RFU ABCC12 (11746883_a_at) / Fold change /veh ABCC12 (11746883_a_at) / RFU TMEM136 (11760407_x_at) / Fold change /veh TMEM136 (11760407_x_at) / RFU CLDN22 /// WWC2 (11732394_at) / Fold change /veh CLDN22 /// WWC2 (11732394_at) / RFU HLA-DPB1 (11760878_x_at) / Fold change /veh HLA-DPB1 (11760878_x_at) / RFU SPINT1 (11716480_a_at) / Fold change /veh SPINT1 (11716480_a_at) / RFU GAP43 (11754022_s_at) / Fold change /veh GAP43 (11754022_s_at) / RFU A4GNT (11735810_at) / Fold change /veh A4GNT (11735810_at) / RFU PRB3 (11715151_x_at) / Fold change /veh PRB3 (11715151_x_at) / RFU TUBB4B (11761932_at) / Fold change /veh TUBB4B (11761932_at) / RFU CAPN14 (11732068_a_at) / Fold change /veh CAPN14 (11732068_a_at) / RFU TMCC2 (11721928_a_at) / Fold change /veh TMCC2 (11721928_a_at) / RFU IRGQ (11745062_a_at) / Fold change /veh IRGQ (11745062_a_at) / RFU FAM174B (11720279_a_at) / Fold change /veh FAM174B (11720279_a_at) / RFU TMPRSS4 (11748680_a_at) / Fold change /veh TMPRSS4 (11748680_a_at) / RFU FAM212B (11763350_a_at) / Fold change /veh FAM212B (11763350_a_at) / RFU PLEKHG5 (11743358_a_at) / Fold change /veh PLEKHG5 (11743358_a_at) / RFU ZSCAN30 (11745921_a_at) / Fold change /veh ZSCAN30 (11745921_a_at) / RFU CMKLR1 (11741424_a_at) / Fold change /veh CMKLR1 (11741424_a_at) / RFU LOC101060620 /// MAPK8IP1 (11723275_at) / Fold change /veh LOC101060620 /// MAPK8IP1 (11723275_at) / RFU SPTSSB (11747773_x_at) / Fold change /veh SPTSSB (11747773_x_at) / RFU PRSS12 (11739890_at) / Fold change /veh PRSS12 (11739890_at) / RFU BIN1 (11741810_x_at) / Fold change /veh BIN1 (11741810_x_at) / RFU WNT11 (11732464_a_at) / Fold change /veh WNT11 (11732464_a_at) / RFU C10orf10 (11716521_a_at) / Fold change /veh C10orf10 (11716521_a_at) / RFU C5orf56 (11738089_at) / Fold change /veh C5orf56 (11738089_at) / RFU CYB561 (11721691_x_at) / Fold change /veh CYB561 (11721691_x_at) / RFU ANKRD19P (11752326_a_at) / Fold change /veh ANKRD19P (11752326_a_at) / RFU OR2T12 /// OR2T33 /// OR2T8 (11738714_s_at) / Fold change /veh OR2T12 /// OR2T33 /// OR2T8 (11738714_s_at) / RFU VCAN (11748164_a_at) / Fold change /veh VCAN (11748164_a_at) / RFU JSRP1 (11732532_at) / Fold change /veh JSRP1 (11732532_at) / RFU KRTAP10-11 (11738290_x_at) / Fold change /veh KRTAP10-11 (11738290_x_at) / RFU MYO3A (11730013_a_at) / Fold change /veh MYO3A (11730013_a_at) / RFU EBF3 (11725865_a_at) / Fold change /veh EBF3 (11725865_a_at) / RFU CAMK2N1 (11719241_x_at) / Fold change /veh CAMK2N1 (11719241_x_at) / RFU C5orf56 (11738088_a_at) / Fold change /veh C5orf56 (11738088_a_at) / RFU OLFML3 (11715873_a_at) / Fold change /veh OLFML3 (11715873_a_at) / RFU LOC100653217 /// NTM (11731650_a_at) / Fold change /veh LOC100653217 /// NTM (11731650_a_at) / RFU MAPK11 (11762145_a_at) / Fold change /veh MAPK11 (11762145_a_at) / RFU FIZ1 (11724087_x_at) / Fold change /veh FIZ1 (11724087_x_at) / RFU OASL (11726364_x_at) / Fold change /veh OASL (11726364_x_at) / RFU SOX15 (11748057_x_at) / Fold change /veh SOX15 (11748057_x_at) / RFU CD79A (11719716_a_at) / Fold change /veh CD79A (11719716_a_at) / RFU HIST1H1D (11736915_at) / Fold change /veh HIST1H1D (11736915_at) / RFU CASKIN2 (11723855_a_at) / Fold change /veh CASKIN2 (11723855_a_at) / RFU LOC730098 (11760151_x_at) / Fold change /veh LOC730098 (11760151_x_at) / RFU OR4N2 (11742367_at) / Fold change /veh OR4N2 (11742367_at) / RFU PRRT2 (11749266_a_at) / Fold change /veh PRRT2 (11749266_a_at) / RFU SNX32 (11753110_a_at) / Fold change /veh SNX32 (11753110_a_at) / RFU CDHR5 (11726645_a_at) / Fold change /veh CDHR5 (11726645_a_at) / RFU RCAN1 (11760418_a_at) / Fold change /veh RCAN1 (11760418_a_at) / RFU FAM167A (11723789_a_at) / Fold change /veh FAM167A (11723789_a_at) / RFU FAM26E (11764081_at) / Fold change /veh FAM26E (11764081_at) / RFU ISYNA1 (11749810_s_at) / Fold change /veh ISYNA1 (11749810_s_at) / RFU ACY1 (11761880_at) / Fold change /veh ACY1 (11761880_at) / RFU 11764098_at / Fold change /veh 11764098_at / RFU SAMD14 (11745864_x_at) / Fold change /veh SAMD14 (11745864_x_at) / RFU NPB (11741838_a_at) / Fold change /veh NPB (11741838_a_at) / RFU TMPRSS6 (11731388_a_at) / Fold change /veh TMPRSS6 (11731388_a_at) / RFU KRTAP10-2 (11738614_at) / Fold change /veh KRTAP10-2 (11738614_at) / RFU ARHGAP8 /// PRR5-ARHGAP8 (11727945_x_at) / Fold change /veh ARHGAP8 /// PRR5-ARHGAP8 (11727945_x_at) / RFU KRTAP5-7 /// NADSYN1 (11734609_at) / Fold change /veh KRTAP5-7 /// NADSYN1 (11734609_at) / RFU RASL12 (11751679_a_at) / Fold change /veh RASL12 (11751679_a_at) / RFU CDKN2B (11736163_a_at) / Fold change /veh CDKN2B (11736163_a_at) / RFU PRF1 (11729649_at) / Fold change /veh PRF1 (11729649_at) / RFU, ZNF638 /// ZNF638-IT1 / Fold change vs veh, ZNF638 /// ZNF638-IT1 / RFU, PANK3 / Fold change vs veh, PANK3 / RFU, SH3YL1 / Fold change vs veh, SH3YL1 / RFU, ZEB2 / Fold change vs veh, ZEB2 / RFU, NRIP1 / Fold change vs veh, NRIP1 / RFU, PTTG1IP / Fold change vs veh, PTTG1IP / RFU, CAPN2 / Fold change vs veh, CAPN2 / RFU, MED14 / Fold change vs veh, MED14 / RFU, SNORA58 / Fold change vs veh, SNORA58 / RFU, C1orf63 / Fold change vs veh, C1orf63 / RFU, LRRFIP1 / Fold change vs veh, LRRFIP1 / RFU, NDUFAF7 / Fold change vs veh, NDUFAF7 / RFU, SLC12A2 / Fold change vs veh, SLC12A2 / RFU, IBTK / Fold change vs veh, IBTK / RFU, ESF1 / Fold change vs veh, ESF1 / Fold change vs veh, TMEM50B / RFU, TAOK1 / Fold change vs veh, TAOK1 / RFU, ACBD3 / Fold change vs veh, ACBD3 / RFU, TMA16 / Fold change vs veh, TMA16 / RFU, RWDD3 / Fold change vs veh, RWDD3 / RFU, BCAT1 / Fold change vs veh, BCAT1 / RFU, EDEM3 / Fold change vs veh, EDEM3 / RFU, TMEM33 / Fold change vs veh, TMEM33 / RFU, WDR75 / Fold change vs veh, WDR75 / RFU, AHCTF1 / Fold change vs veh, AHCTF1 / RFU, TFRC / Fold change vs veh, TFRC / RFU, ZDHHC17 / Fold change vs veh, ZDHHC17 / RFU, NOM1 / Fold change vs veh, NOM1 / RFU, ARL8B / Fold change vs veh, ARL8B / RFU, ZBTB11 / Fold change vs veh, ZBTB11 / RFU, TAMM41 / Fold change vs veh, TAMM41 / RFU, KIAA1704 /// LOC100996395 / Fold change vs veh, KIAA1704 /// LOC100996395 / RFU, ING1 / Fold change vs veh, ING1 / RFU, TRMT61B / Fold change vs veh, TRMT61B / RFU, FUBP3 / Fold change vs veh, FUBP3 / RFU, TP53 / Fold change vs veh, TP53 / RFU, TNKS2 / Fold change vs veh, TNKS2 / RFU, ZFP14 / Fold change vs veh, ZFP14 / RFU, ACTR2 / Fold change vs veh, ACTR2 / RFU, PPP3R1 / Fold change vs veh, PPP3R1 / RFU, PIK3R1 / Fold change vs veh, PIK3R1 / RFU, HNRNPA1 / Fold change vs veh, HNRNPA1 / RFU, RNF170 / Fold change vs veh, RNF170 / RFU, ZNF28 / Fold change vs veh, ZNF28 / RFU, RNGTT / Fold change vs veh, RNGTT / RFU, OGT / Fold change vs veh, OGT / RFU, BRD1 / Fold change vs veh, BRD1 / RFU, MARS / Fold change vs veh, MARS / RFU, ZNF655 / Fold change vs veh, ZNF655 / RFU, FAHD1 / Fold change vs veh, FAHD1 / RFU, BDP1 / Fold change vs veh, BDP1 / RFU, LRRCC1 / Fold change vs veh, LRRCC1 / RFU, ARID1A / Fold change vs veh, ARID1A / RFU, ZNF146 / Fold change vs veh, ZNF146 / RFU, ZNF330 / Fold change vs veh, ZNF330 / RFU, GPN3 / Fold change vs veh, GPN3 / RFU, C9orf123 / Fold change vs veh, C9orf123 / RFU, N4BP2L2 / Fold change vs veh, N4BP2L2 / RFU, ARFIP1 / Fold change vs veh, ARFIP1 / RFU, FAM179B / Fold change vs veh, FAM179B / RFU, BCL10 / Fold change vs veh, BCL10 / RFU, UHRF1BP1L / Fold change vs veh, UHRF1BP1L / RFU, BET1 / Fold change vs veh, BET1 / RFU, CNOT2 / Fold change vs veh, CNOT2 / RFU, ZNF268 / Fold change vs veh, ZNF268 / Fold change vs veh, ZNF507 / RFU, DGCR2 / Fold change vs veh, DGCR2 / RFU, WDSUB1 / Fold change vs veh, WDSUB1 / Fold change vs veh, HSP90B1 /// MIR3652 / RFU, ADSS / Fold change vs veh, ADSS / RFU, GK / Fold change vs veh, GK / RFU, ZNF148 / Fold change vs veh, ZNF148 / RFU, TAF9 / Fold change vs veh, TAF9 / RFU, SLC1A5 / Fold change vs veh, SLC1A5 / RFU, SLMO2 / Fold change vs veh, SLMO2 / RFU, ABCC4 / Fold change vs veh, ABCC4 / RFU, LOC101060439 /// RAP1B / Fold change vs veh, LOC101060439 /// RAP1B / RFU, RFX7 / Fold change vs veh, RFX7 / RFU, GTPBP10 / Fold change vs veh, GTPBP10 / RFU, CNEP1R1 / Fold change vs veh, CNEP1R1 / RFU, BIVM-ERCC5 /// ERCC5 / Fold change vs veh, BIVM-ERCC5 /// ERCC5 / RFU, ILF3 / Fold change vs veh, ILF3 / RFU 11762660_at / Fold change /veh 11762660_at / RFU VCAN (11757783_s_at) / Fold change /veh VCAN (11757783_s_at) / RFU DDX43 (11728927_at) / Fold change /veh DDX43 (11728927_at) / RFU KRT8 (11758188_x_at) / Fold change /veh KRT8 (11758188_x_at) / RFU NKD1 (11759106_at) / Fold change /veh NKD1 (11759106_at) / RFU SRD5A1 (11742802_a_at) / Fold change /veh SRD5A1 (11742802_a_at) / RFU TPSAB1 /// TPSB2 (11721975_s_at) / Fold change /veh TPSAB1 /// TPSB2 (11721975_s_at) / RFU GSTM3 (11746129_a_at) / Fold change /veh GSTM3 (11746129_a_at) / RFU IL23R (11737362_x_at) / Fold change /veh IL23R (11737362_x_at) / RFU TMEM51 (11727254_a_at) / Fold change /veh TMEM51 (11727254_a_at) / RFU PIWIL2 (11732686_x_at) / Fold change /veh PIWIL2 (11732686_x_at) / RFU ORM1 (11744905_x_at) / Fold change /veh ORM1 (11744905_x_at) / RFU CCDC152 (11743942_at) / Fold change /veh CCDC152 (11743942_at) / RFU ECM1 (11717891_a_at) / Fold change /veh ECM1 (11717891_a_at) / RFU IL23R (11748794_a_at) / Fold change /veh IL23R (11748794_a_at) / RFU TNFAIP8L3 (11732012_x_at) / Fold change /veh TNFAIP8L3 (11732012_x_at) / RFU MBOAT4 (11741988_at) / Fold change /veh MBOAT4 (11741988_at) / RFU 11764193_at / Fold change /veh 11764193_at / RFU TMEM53 (11763286_at) / Fold change /veh TMEM53 (11763286_at) / RFU MAGEB2 (11727129_at) / Fold change /veh MAGEB2 (11727129_at) / RFU TMEM200A (11744735_a_at) / Fold change /veh TMEM200A (11744735_a_at) / RFU CCDC152 (11751479_a_at) / Fold change /veh CCDC152 (11751479_a_at) / RFU FAM211A (11726209_a_at) / Fold change /veh FAM211A (11726209_a_at) / RFU RGS16 (11746705_a_at) / Fold change /veh RGS16 (11746705_a_at) / RFU VCAN (11755009_s_at) / Fold change /veh VCAN (11755009_s_at) / RFU RHOB (11743442_s_at) / Fold change /veh RHOB (11743442_s_at) / RFU RGS16 (11720943_a_at) / Fold change /veh RGS16 (11720943_a_at) / RFU RGS16 (11720944_at) / Fold change /veh RGS16 (11720944_at) / RFU, VPS4B / Fold change vs veh, VPS4B / RFU, CREB1 / Fold change vs veh, CREB1 / RFU, DNAJC13 / Fold change vs veh, DNAJC13 / RFU, GNAQ / Fold change vs veh, GNAQ / RFU, CDK5R1 / Fold change vs veh, CDK5R1 / RFU, ZRANB3 / Fold change vs veh, ZRANB3 / RFU, CUL4A / Fold change vs veh, CUL4A / RFU, CCNY / Fold change vs veh, CCNY / RFU, UFL1 / Fold change vs veh, UFL1 / RFU, COG3 / Fold change vs veh, COG3 / RFU, DIAPH2 / Fold change vs veh, DIAPH2 / RFU, SKA2 / Fold change vs veh, SKA2 / RFU, AFF3 / Fold change vs veh, AFF3 / RFU, LMF1 / Fold change vs veh, LMF1 / RFU, IPO11 / Fold change vs veh, IPO11 / RFU, DFFB / Fold change vs veh, DFFB / RFU, FOXP1 / Fold change vs veh, FOXP1 / RFU, CARD8 / Fold change vs veh, CARD8 / RFU, STRN3 / Fold change vs veh, STRN3 / RFU, ADK / Fold change vs veh, ADK / RFU, RASSF2 / Fold change vs veh, RASSF2 / RFU, WIPF1 / Fold change vs veh, WIPF1 / RFU, LARP1B / Fold change vs veh, LARP1B / RFU, RASA1 / Fold change vs veh, RASA1 / RFU, RB1 / Fold change vs veh, RB1 / RFU, PPFIA1 / Fold change vs veh, PPFIA1 / RFU, MAT2A / Fold change vs veh, MAT2A / RFU, CCT5 / Fold change vs veh, CCT5 / RFU, WDR92 / Fold change vs veh, WDR92 / RFU, CUX1 / Fold change vs veh, CUX1 / RFU, TTC7A / Fold change vs veh, TTC7A / RFU, TMEM135 / Fold change vs veh, TMEM135 / RFU, DEPTOR / Fold change vs veh, DEPTOR / RFU, CPM / Fold change vs veh, CPM / RFU, DNAJB6 / Fold change vs veh, DNAJB6 / RFU, CACNA2D3 / Fold change vs veh, CACNA2D3 / RFU, DTX4 / Fold change vs veh, DTX4 / RFU, TFCP2 / Fold change vs veh, TFCP2 / RFU, GMCL1 /// GMCL1P1 / Fold change vs veh, GMCL1 /// GMCL1P1 / RFU, AEBP2 / Fold change vs veh, AEBP2 / RFU, SNHG1 /// SNORD22 /// SNORD25 /// SNORD26 /// SNORD27 /// SNORD28 /// SNORD29 /// SNORD31 / Fold change vs veh, SNHG1 /// SNORD22 /// SNORD25 /// SNORD26 /// SNORD27 /// SNORD28 /// SNORD29 /// SNORD31 / Fold change (Aza/veh), C12orf56 (ProbeSet 11735607_a_at) / Fold change (ACY-1035/veh), C12orf56 (ProbeSet 11735607_a_at) / Fold change (Aza/veh), FGFR1OP (ProbeSet 11751329_s_at) / Fold change (ACY-1035/veh), FGFR1OP (ProbeSet 11751329_s_at) / Fold change (Aza/veh), VPS36 (ProbeSet 11739960_a_at) / Fold change (ACY-1035/veh), VPS36 (ProbeSet 11739960_a_at) / RFU SYPL1 (11715823_x_at) / Fold change /veh SYPL1 (11715823_x_at) / RFU IGFBP7 (11715501_s_at) / Fold change /veh IGFBP7 (11715501_s_at) / RFU REEP3 (11722064_at) / Fold change /veh REEP3 (11722064_at) / RFU IGLL1 (11728026_x_at) / Fold change /veh IGLL1 (11728026_x_at): dose or concentration left out as unconfirmed
Conditions: ProbeSet 11757113_a_at; LIST D

Structure (SMILES): Nc1ccc(-c2cccs2)cc1NC(=O)c1ccc2c(c1)cc(C1CC1)n2CCN1CCOCC1 [ACY-1035]
- RFU, SNHG1 /// SNORD22 /// SNORD25 /// SNORD26 /// SNORD27 /// SNORD28 /// SNORD29 /// SNORD31: 319.01 RFU
